Experimental data taken from ChEMBL document CHEMBL4825753 (J Med Chem, 2021).
Active and inactive are the calls of the source. The rule behind the calls is not given here.

How the values were obtained:
[1] = target: T1, Tyrosine-protein kinase receptor UFO (Homo sapiens, UniProt P30530); assay: Inhibition of FLAG-tagged AXL (unknown origin) transfected in Cos-7 cells assessed as phosphorylation level incubated for 1 hr by ELISA; assay type: cell-based
T1 sequence (P30530 whole entry): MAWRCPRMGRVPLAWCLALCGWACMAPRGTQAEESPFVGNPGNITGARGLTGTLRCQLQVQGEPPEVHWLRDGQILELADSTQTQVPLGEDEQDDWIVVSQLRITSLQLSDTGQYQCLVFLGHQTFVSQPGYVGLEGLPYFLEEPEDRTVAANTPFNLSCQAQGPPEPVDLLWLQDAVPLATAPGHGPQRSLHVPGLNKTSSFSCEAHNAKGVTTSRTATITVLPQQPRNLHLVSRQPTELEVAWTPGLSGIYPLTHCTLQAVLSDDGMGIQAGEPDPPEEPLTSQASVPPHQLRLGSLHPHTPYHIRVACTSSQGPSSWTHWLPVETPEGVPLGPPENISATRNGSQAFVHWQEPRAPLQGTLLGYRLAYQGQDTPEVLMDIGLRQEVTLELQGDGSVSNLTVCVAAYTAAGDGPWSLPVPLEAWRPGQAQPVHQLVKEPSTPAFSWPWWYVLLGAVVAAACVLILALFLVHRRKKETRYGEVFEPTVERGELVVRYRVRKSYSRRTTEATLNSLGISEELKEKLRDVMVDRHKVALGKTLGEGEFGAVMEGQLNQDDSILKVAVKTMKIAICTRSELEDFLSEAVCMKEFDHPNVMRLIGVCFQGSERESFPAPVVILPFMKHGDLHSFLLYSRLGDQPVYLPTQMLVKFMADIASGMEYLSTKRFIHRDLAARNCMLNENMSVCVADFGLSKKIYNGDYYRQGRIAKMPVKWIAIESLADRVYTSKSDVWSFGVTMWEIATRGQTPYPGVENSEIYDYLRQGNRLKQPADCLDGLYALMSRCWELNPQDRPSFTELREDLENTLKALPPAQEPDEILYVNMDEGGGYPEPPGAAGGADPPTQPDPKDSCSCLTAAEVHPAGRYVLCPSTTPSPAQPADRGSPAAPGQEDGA

[2] = target: T2, Receptor-type tyrosine-protein kinase FLT3 (Homo sapiens, UniProt P36888); assay: Inhibition of FLAG-tagged FLT3 (unknown origin) transfected in Cos-7 cells assessed as phosphorylation level incubated for 1 hr by ELISA; assay type: cell-based
T2 sequence (P36888 whole entry): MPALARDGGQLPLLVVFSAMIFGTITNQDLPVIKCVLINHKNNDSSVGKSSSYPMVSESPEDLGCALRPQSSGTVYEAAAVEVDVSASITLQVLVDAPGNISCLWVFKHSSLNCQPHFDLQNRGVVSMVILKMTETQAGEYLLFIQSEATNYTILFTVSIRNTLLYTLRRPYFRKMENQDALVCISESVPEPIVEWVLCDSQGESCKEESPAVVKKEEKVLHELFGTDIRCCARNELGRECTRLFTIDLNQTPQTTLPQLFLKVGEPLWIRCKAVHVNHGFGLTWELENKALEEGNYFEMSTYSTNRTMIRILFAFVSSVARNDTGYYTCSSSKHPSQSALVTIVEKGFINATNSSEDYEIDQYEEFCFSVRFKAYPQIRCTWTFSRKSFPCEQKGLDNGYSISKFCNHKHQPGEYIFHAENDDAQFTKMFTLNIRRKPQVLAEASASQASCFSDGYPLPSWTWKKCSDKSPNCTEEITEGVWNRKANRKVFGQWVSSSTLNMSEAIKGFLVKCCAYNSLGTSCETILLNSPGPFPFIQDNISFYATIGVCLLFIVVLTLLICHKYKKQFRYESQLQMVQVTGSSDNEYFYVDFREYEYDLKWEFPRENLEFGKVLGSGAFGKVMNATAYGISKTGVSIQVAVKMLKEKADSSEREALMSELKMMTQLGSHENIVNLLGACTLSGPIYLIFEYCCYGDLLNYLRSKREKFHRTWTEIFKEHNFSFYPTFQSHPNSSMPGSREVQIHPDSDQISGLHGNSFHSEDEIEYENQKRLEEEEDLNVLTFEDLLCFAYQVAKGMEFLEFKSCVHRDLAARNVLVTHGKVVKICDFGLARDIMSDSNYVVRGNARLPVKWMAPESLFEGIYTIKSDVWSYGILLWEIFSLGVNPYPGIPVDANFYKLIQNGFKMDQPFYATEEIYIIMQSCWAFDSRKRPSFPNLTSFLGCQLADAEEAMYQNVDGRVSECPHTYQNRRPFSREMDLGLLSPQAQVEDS

[3] = Lipophilicity, log D of the compound at pH 7.4; assay type: physicochemical; settings: buffer
[4] = target: T3, Tyrosine-protein kinase receptor TYRO3 (Homo sapiens, UniProt Q06418); assay: Inhibition of FLAG-tagged Tyro3 (unknown origin) transfected in Cos-7 cells assessed as phosphorylation level incubated for 1 hr by ELISA; assay type: cell-based
T3 sequence (Q06418 whole entry): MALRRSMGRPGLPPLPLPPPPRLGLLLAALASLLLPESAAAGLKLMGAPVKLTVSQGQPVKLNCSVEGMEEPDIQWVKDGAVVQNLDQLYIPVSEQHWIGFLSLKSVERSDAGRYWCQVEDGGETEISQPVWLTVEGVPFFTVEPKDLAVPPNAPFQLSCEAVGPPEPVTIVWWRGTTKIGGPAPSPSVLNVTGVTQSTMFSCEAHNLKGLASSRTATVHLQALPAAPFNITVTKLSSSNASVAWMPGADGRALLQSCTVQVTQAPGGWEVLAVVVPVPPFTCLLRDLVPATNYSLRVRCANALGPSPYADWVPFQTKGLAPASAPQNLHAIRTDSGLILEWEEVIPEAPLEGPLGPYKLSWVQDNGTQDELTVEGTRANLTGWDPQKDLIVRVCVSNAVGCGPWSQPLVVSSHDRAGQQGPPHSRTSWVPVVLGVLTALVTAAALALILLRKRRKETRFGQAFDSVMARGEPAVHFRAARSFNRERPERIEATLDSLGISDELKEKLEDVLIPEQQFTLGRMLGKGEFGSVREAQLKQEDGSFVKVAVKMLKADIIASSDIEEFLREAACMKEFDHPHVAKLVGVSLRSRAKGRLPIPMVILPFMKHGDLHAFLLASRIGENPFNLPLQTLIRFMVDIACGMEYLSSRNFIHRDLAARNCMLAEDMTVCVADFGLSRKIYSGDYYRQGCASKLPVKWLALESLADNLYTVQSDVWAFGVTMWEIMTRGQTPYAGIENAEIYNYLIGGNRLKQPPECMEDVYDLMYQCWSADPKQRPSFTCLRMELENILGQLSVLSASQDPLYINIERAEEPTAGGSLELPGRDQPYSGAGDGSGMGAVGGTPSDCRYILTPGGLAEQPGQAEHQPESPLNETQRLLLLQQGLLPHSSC

[5] = Induction efferocytosis in human PBMC assessed as CD14-positive monocytes
[6] = Photostability of compound assessed as half life; assay type: physicochemical
[7] = system: BaF3; assay: Growth inhibition of mouse BaF3 cells transfected with MER assessed as inhibition of cell growth incubated for 72 hrs by Cell-titer-Glo assay; assay type: functional
[8] = system: BaF3; assay: Growth inhibition of mouse BaF3 cells transfected with AXL assessed as inhibition of cell growth incubated for 72 hrs by Cell-titer-Glo assay; assay type: functional
[9] = system: BaF3; assay: Growth inhibition of mouse BaF3 cells transfected with FLT3 assessed as inhibition of cell growth incubated for 72 hrs by Cell-titer-Glo assay; assay type: functional
[10] = system: BaF3; assay: Growth inhibition of mouse BaF3 cells transfected with Tyro3 assessed as inhibition of cell growth incubated for 72 hrs by Cell-titer-Glo assay; assay type: functional
[11] = system: BaF3; assay: Growth inhibition of mouse BaF3 cells assessed as inhibition of cell growth incubated for 72 hrs by Cell-titer-Glo assay; assay type: functional
[12] = system: BaF3; assay: Antitumour activity against mouse BaF3 cells transfected with MER implanted in C57BL/6J mouse assessed as reduction in tumour growth at 3 to 100 mg/kg, po bid for 6 days; assay type: functional, organism-based; settings: dose 3-100 mg/kg, time 6.0 day
[13] = system: BaF3; assay: Antitumour activity against mouse BaF3 cells transfected with AXL implanted in C57BL/6J mouse assessed as reduction in tumour growth at 100 mg/kg, po bid for 6 days; assay type: functional, organism-based; settings: time 6.0 day
[14] = Fraction unbound in C57BL/6J mouse implanted with mouse BaF3 cells transfected with MER in at 3 to 100 mg/kg, po bid for 6 days; assay type: ADME, organism-based; settings: in vivo, dose 3-100 mg/kg, time 6 day
[15] = Fraction unbound in C57BL/6J mouse implanted with mouse BaF3 cells transfected with AXL in at 3 to 100 mg/kg, po bid for 6 days; assay type: ADME, organism-based; settings: in vivo, dose 3-100 mg/kg, time 6 day
[16] = system: BaF3; assay: Antitumour activity against mouse BaF3 cells transfected with MER implanted in C57BL/6J mouse assessed as reduction in MER phosphorylation at 30 to 100 mg/kg, po bid for 6 days by western blot analysis; assay type: functional, organism-based; settings: dose 30-100 mg/kg, time 6.0 day
[17] = system: BaF3; assay: Antitumour activity against mouse BaF3 cells transfected with AXL implanted in C57BL/6J mouse assessed as reduction in AXL phosphorylation at 30 to 100 mg/kg, po bid for 6 days western blot analysis; assay type: functional, organism-based; settings: dose 30-100 mg/kg, time 6.0 day
[18] = system: MC-38; assay: Antitumour activity against mouse MC38 cells implanted in C57BL6 mouse assessed as increase in survival at 100 mg/kg, po bid for 2 weeks co-treatment with anti-PD1 further treated with ionizing radiation; assay type: functional, organism-based

Row | SMILES | IC50 [1] [µM] | IC50 [2] [µM] | logD [3] | IC50 [4] [µM] | pIC50 [5] | half-life [6] [days] | also measured
1 | Cc1cc(-c2c(C)nn(C)c2C)ccc1-c1nnc(N(C)Cc2ccc3ncc(C4CCN(C)CC4)n3c2)o1 | 1.26 | > 31.6 | 2.5 | > 31.6 | 6.9 |  | 
2 | Cc1cc(-c2c(C)nn(C)c2C)cnc1-c1nnc(N(C)Cc2ccc3ncc(-c4cnn(CCN(C)C)c4)n3c2)o1 | 1 | > 31.6 | 2.7 | > 31.6 | 7.1 |  | 
3 | Cc1cc(-c2c(C)nn(C)c2C)ccc1-c1nnc(N(C)Cc2ccc3ncc(-c4cnn(C)c4)n3c2)o1 | 0.0631 | 12.6 | 4 | 12.6 | 7.2 | 11.4 | 
4 | Cc1cc(-c2c(C)nn(C)c2C)cnc1-c1nnc(N(C)Cc2ccc3ncc(-c4ccc(CN(C)C)cn4)n3c2)o1 | 0.126 | 25.1 | 3 | > 31.6 | 7.2 |  | 
5 | Cc1cc(-c2c(C)nn(C)c2C)ccc1-c1nnc(N(C)Cc2ccc3ncc(C(=O)N(C)C)n3c2)o1 | 0.398 | 10 | 3.3 | 25.1 | 7.1 | 17.8 | 
6 | Cc1cc(-c2c(C)nn(C)c2C)ccc1-c1nnc(N(C)Cc2ccc3ncc(-c4ccccc4)n3c2)o1 | 0.2 | 7.94 | 5.3 | 20 | 6.7 | 11.4 | 
7 | CN1CCN(Cc2ccc(-c3ccc(CO[C@H]4CCC[C@@H]4NC(=O)c4cc(-c5cnn(C)c5)cnc4N)cc3)cc2)CC1 |  | 10 | 2.8 |  |  |  | GI50 [7]: 0.00794 µM; GI50 [8]: 0.0501 µM; GI50 [9]: 5.01 µM; GI50 [10]: 3.16 µM; GI50 [11]: 12.6 µM; Activity [12]: Active; Activity [13]: Active; fraction unbound at 144 h [14]: 0.14; fraction unbound at 144 h [15]: 0.14; Activity [16]: Active; Activity [17]: Active; Activity [18]: Active
8 | Cc1cc(-c2c(C)nn(C)c2C)ccc1-c1nnc(N(C)Cc2ccc3ncc(-c4cnn(CCN(C)C)c4)n3c2)o1 | 0.126 | > 31.6 | 3.5 | 12.6 | 7.8 |  | 
9 | Cc1cc(-c2c(C)nn(C)c2C)cnc1-c1nnc(N(C)Cc2ccc3ncc(-c4cccc(CN(C)C)c4)n3c2)o1 | 0.316 | > 31.6 | 3 | > 31.6 | 7 |  | 
10 | Cc1cc(-c2c(C)nn(C)c2C)cnc1-c1nnc(N(C)Cc2ccc3ncc(-c4ccc(CN(C)C)nc4)n3c2)o1 | 1.58 | > 31.6 | 2.5 | > 31.6 |  |  | 
